# Experimental data: article PMC9321663, “The DevTox Germ Layer Reporter Platform: An Assay Adaptation of the Human Pluripotent Stem Cell Test” (Toxics, 2022)
# Where two headings read alike, the source gives them in different places.
# Key:
# H9 human ESC line = conditions: cited from earlier work
# [1] = system: SOX17 (endoderm marker) in RUES2-GLR cells; assay: DevTox GLR-Endo assay: increase in percent SOX17-positive cells (AEID 3093, Sox17_up); format: cell-based, human; conditions: for Emax: Homo sapiens; for HIT−CALL: tcpl plot AEID3093, COFF 20.3
# Experimental: (§1) The total test chemical incubation period was 48 h.
# (§2) (Supplementary Materials).
# [2] = system: BRA (mesoderm marker) in RUES2-GLR cells; assay: DevTox GLR-Endo assay: increase in percent BRA-positive cells (AEID 3096, Bra_up); format: cell-based, human
# Experimental: as §1, §2
# H9 embryonic stem cells = conditions: concentration at cell viability cutoff; cited from earlier work
# [3] = system: SOX2 (ectoderm and pluripotency marker) in RUES2-GLR cells; assay: DevTox GLR-Endo assay: increase in percent SOX2-positive cells (AEID 3095, Sox2_up); conditions: for MAX_MEAN: tcpl plot AEID3095, maximum mean response; for MAX_MED: tcpl plot AEID3095, maximum median response
# Experimental: RUES2-GLR cells were seeded 24 h prior to differentiation initiation into vitronectin-coated 384-well CellCarrier Ultra plates (10.6 mm^2/well) (Perkin Elmer, Waltham, MA, USA). Vitronectin (0.5 µg/cm^2)-coated plates were prepared and stored at 4 °C, wrapped in parafilm, for less than seven days and incubated at room temperature for one hour prior to cell seeding. […] Cells were dispensed into 20 µL coating solution using a Certus FLEX Micro Dispenser (Fritz Gyger, Gwatt, Switzerland) with a 0.45 µm valve to a final volume of 100 µL and density of 2.8 × 10^3 cells per well.
# Following a 24 h post-seeding incubation period (Time = 0 h) (Figure 3A), directed endoderm differentiation was initiated with the PSC Definitive Endoderm Induction kit (Gibco, Waltham, MA, USA). […] A target dilution series (0.002–200 µM) was generated by dispensing variable nanoliter volumes of test chemical and backfilling with a complementary volume of DMSO using Echo Cherry Pick software (v.1.6.2). Wells were backfilled with 50 µL of induction medium using a Certus FLEX Micro Dispenser with 0.45 µm valves. Test compound treatment plates were mixed on a Multi-Microplate Genie mixer at 700 rpm for 10 min and subsequently incubated for two hours in a humidified atmosphere at 37 °C with 5% CO2. Each chemical treatment (0 h–Medium A; 24 h–Medium B) were prepared the day of treatment. At 0 h, cell culture medium was aspirated from the assay plate at a rate of 1 µL/s and 40 µL of Medium A ± test chemical applied using a CyBio FeliX automated liquid handler (Analytik Jena, Jena, Germany). At 24 h, conditioned cell culture medium was aspirated and 40 µL of Medium B ± test chemical was applied. At 48 h, cells were prepared for high-content image acquisition by fixation and nuclear staining. The total test chemical incubation period was 48 h. For fixation, a 4% paraformaldehyde (PFA) solution was achieved by adding 40 µL of 8% PFA directly to cell culture medium using a CyBio FeliX liquid handler. […] Following an additional 30 min incubation period at room temperature, staining solution was aspirated, 50 µL of DPBS was added, and plate sealed with MicroAmp Optical Adhesive Film (Applied Biosystems, Waltham, MA, USA).
# Images were acquired within 12 h post-fixation using an Opera Phenix High-Content Screening System (Perkin Elmer, Waltham, MA, USA). […] Cell identification and mean biomarker fluorescent intensities were calculated using Harmony image analysis software (Perkin Elmer, Waltham, MA, USA). Cell nuclei were identified using the object classifying algorithm C of the software with border objects excluded using the “Remove Border Objects” feature. Mean cell biomarker intensity statistics were gathered from each object and exported for further analysis using a custom script in Python version 3.7.4 [61] […] For each plate, pluripotent-negative control wells were used to establish baseline intensity values and a cutoff threshold for determining SOX17 and BRA biomarker-positive cells. Endoderm differentiated positive control wells were used to establish baseline intensity values and a cutoff threshold for SOX2-positive cells. Cells with a mean intensity five times the baseline median absolute deviation (5*bmad) above the median cell intensity for plate-based control population technical replicates were considered positive. Well-based cell counts, reflected by the sum of total counted objects from all fields, were used to calculate the percent responders for each respective biomarker and evaluate cytotoxicity. Well-level results were exported for data modeling in the ToxCast Pipeline.
# The ToxCast Pipeline R package (tcpl v.2.0.2) was used to normalize, fit, and qualify concentration-response screening data [63].
# [4] = system: SOX17 in H9 human ESC line; conditions: SOX17 half-maximal inhibition concentration; read-out: hPST IC50; cited from earlier work
# in vitro = conditions: human
# RUES2-GLR cells [5] = assay: DevTox GLR-Endo assay: decrease in total cell count, cytotoxicity (AEID 3098, CellCount_dn); conditions: for Emax: Homo sapiens, read-out: Cell Count % Max Inhibition
# [6] = system: SOX17 (endoderm marker) in RUES2-GLR cells; assay: DevTox GLR-Endo assay: decrease in percent SOX17-positive cells (AEID 3094, Sox17_dn); conditions: for Hit Call: Table S2, SOX17-positive cells, cutoff 3*bmad; for DevTox ACC: Table S2, percent SOX17-positive cells; for DevTox-GLR Endo ACC: activity concentration at cutoff, SOX17-positive cells; for HIT−CALL: tcpl plot AEID3094, COFF 20.3
# In short: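 RUES2-GLR cells under endoderm differentiation exposed to test chemicals for 48 h in total, with 0.2% DMSO solvent control and SB431542 (1 µM) as developmental-toxicant control. Endpoints: decrease in total cell count and in percent SOX17-positive cells; n = 4 biological replicates minimum.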
# [7] = system: o/c ratio in H9 embryonic stem cells; conditions: Teratogen Index, o/c ratio; cited from earlier work
# [8] = cited from earlier work; for Development Toxicant Classification: Table S2; for Classification: developmental toxicant classification (Teratogen / Non-Teratogen) of reference and training chemicals, ref DOI per chemical: 10.1093/toxsci/kft239, 10.1093/toxsci/kfaa014, 10.1177/026119290203000204, 10.1038/s41598-020-59542-x; for DT Class.: developmental toxicant classification
# RUES2-GLR cells [9] = assay: DMSO tolerance test under directed endoderm differentiation (SOX17-positive cells, cell count); format: cell-based, human; conditions: DMSO 0.2%
# Experimental: To identify biomarker-positive populations during directed endoderm differentiation, RUES2-GLR cells were evaluated by high-content confocal imaging. […] A qualitative loss of SOX2 expression and increased SOX17 expression were evident, indicating loss in pluripotency and commitment to definitive endoderm, respectively (Figure 2A).
# H9 ESCs = conditions: global gene expression at 6, 96 and 192 h; cited from earlier work
# [10] = cytotoxicity half-maximal concentration
# [11] = tcpl plot AEID3093, maximum mean response, read-out: MAX_MEAN
# [12] = tcpl plot AEID3093, maximum median response, read-out: MAX_MED
# [13] = Homo sapiens, 48 h, read-out: DevTox-GLR Endo AC50 (µM), SOX17 half-maximal activity concentration, 48 h exposure
# [14] = Homo sapiens, read-out: DevTox % Max Inhibition
# [15] = Homo sapiens, read-out: MAX_MEAN
# [16] = Homo sapiens, read-out: MAX_MED
# [17] = Homo sapiens, read-out: ga (winning model), tcpl plot AEID3094, gain parameter of winning curve fit (log concentration, µM axis), hit calls only (converted)
# [18] = Homo sapiens, read-out: tp (winning model)
# [19] = chemicals common with quickPredict
"Cell Count ACC (RUES2-GLR cells [5]; human, 48 h) [µM]",SMILES,hPST TC50 (H9 human ESC line; [10]) [µM],hPST TC50 (H9 human ESC line; hPST cytotoxicity) [µM],"Emax [1, 11] [%]","Emax [1, 12] [%]",HIT−CALL [1],MAX_MEAN [3] [Percent Activity],MAX_MED [3] [Percent Activity],IC50 [4] [µM],Emax (RUES2-GLR cells [5]) [%],"AC50 [6, 13] [µM]","Emax [6, 14] [%]","Emax [6, 15] [%]","Emax [6, 16] [%]","AC50 [6, 17] [µM]","Emax [6, 18] [%]",Hit Call [6],DevTox ACC ([6]; 48 h exposure) [µM],DevTox-GLR Endo ACC ([6]; 48 h exposure) [µM],HIT−CALL [6],other results
>200,CCCC(CCC)C(=O)O [Valproic Acid],3.3,3.3,7.73,5.59,0,1.25,0.475,2.6,18.1,124,22.3,22,22.3,123,29.3,Positive,177.332,177.33,1,"HIT−CALL ([2]; tcpl plot AEID3096, COFF 0.774): 0; MAX_MEAN ([2]; tcpl plot AEID3096, maximum mean response): 0.771 Percent Activity; MAX_MED ([2]; tcpl plot AEID3096, maximum median response): 0.815 Percent Activity; quickPredict CV (H9 embryonic stem cells): 271 µM; CC50 at 48 h (in vitro): > 200 µM; SOX17 ACC relative to cytotoxic concentration (in words) [6]: below cytotoxic concentrations; quickPredict TI [7]: 155 µM; Development Toxicant Classification [8]: Positive; Classification [8]: Teratogen; DT Class. ([8]; chemicals common with hPST): Pos; DT Class. [8, 19]: Pos"
–,"C[S+](C)[O-] [DMSO, dimethyl sulfoxide]",–,–,–,–,–,–,–,–,–,–,–,–,–,–,–,–,–,–,–,effect on cell counts (in words) (RUES2-GLR cells [9]): without affecting cell counts; reduction of the SOX17 population (RUES2-GLR cells [9]): 19.5%
3.839,CC1=C(/C=C/C(C)=C/C=C/C(C)=C/C(=O)O)C(C)(C)CCC1,33,33,4.3,3.82,0,50.7,53.1,0.07,97.6,0.1,101,101,101,0.101,99.2,Positive,0.04166,0.04,1,"toxicological tipping point concentration (H9 ESCs): 17 ± 11 nM; increase of BRA protein expression (in words) ([2]; AEID 3096, 48 h exposure): lack of significant BRA perturbation; AC50 ([3]; Homo sapiens, read-out: ga (winning model)): 87.1 µM; Emax [3, 18]: 71.4%; CC50 at 48 h (in vitro; RUES2-GLR cells under directed endoderm differentiation): 5.53 µM; DevTox-GLR Endo CC (RUES2-GLR cells [5]; human, 48 h): 3.84 µM; IC50 ([6]; Homo sapiens, 48 h): 0.16 µM; % Max Inhibition ([6]; maximum inhibition of SOX17-positive cells, reference chemical testing, 48 h exposure): 93%; quickPredict TI [7]: 0.003 µM; Development Toxicant Classification [8]: Positive; Classification [8]: Teratogen; DT Class. ([8]; chemicals common with hPST): Pos; DT Class. [8, 19]: Pos; Developmental Toxicant Classification ([8]; reference chemicals): Positive"
